Measurements taken from PubChem BioAssay (NCI).
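GI50 is the concentration that inhibits growth by half. The concentration for full growth arrest is given as TGI.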

Experiments:
Assay in all cases: NCI-60 cell line screen, 384-well format
[1] = system: 786-0 renal
[2] = system: A498 renal
[3] = system: A549 NSCLC
[4] = system: ACHN renal
[5] = system: BT-549 breast
[6] = system: CAKI-1 renal
[7] = system: CCRF-CEM leukemia
[8] = system: COLO 205 colon
[9] = system: DU-145 prostate
[10] = system: EKVX NSCLC
[11] = system: HCC-2998 colon
[12] = system: HCT-116 colon
[13] = system: HCT-15 colon
[14] = system: HL-60(TB) leukemia
[15] = system: HOP-62 NSCLC
[16] = system: HOP-92 NSCLC
[17] = system: HS 578T breast
[18] = system: HT29 colon
[19] = system: IGROV1 ovarian
[20] = system: K-562 leukemia
[21] = system: KM12 colon
[22] = system: LOX IMVI melanoma
[23] = system: M14 melanoma
[24] = system: MALME-3M melanoma
[25] = system: MCF7 breast
[26] = system: MDA-MB-231 breast
[27] = system: MDA-MB-435 melanoma
[28] = system: MDA-MB-468 breast
[29] = system: MOLT-4 leukemia
[30] = system: NCI-H226 lung
[31] = system: NCI-H23 lung
[32] = system: NCI-H322M lung
[33] = system: NCI-H460 NSCLC
[34] = system: NCI-H522 lung
[35] = system: NCI/ADR-RES ovarian
[36] = system: OVCAR-3 ovarian
[37] = system: OVCAR-4 ovarian
[38] = system: OVCAR-5 ovarian
[39] = system: OVCAR-8 ovarian
[40] = system: PC-3 prostate
[41] = system: RPMI-8226 leukemia
[42] = system: RXF 393 renal
[43] = system: SF-268 CNS
[44] = system: SF-295 CNS
[45] = system: SF-539 CNS
[46] = system: SK-MEL-28 melanoma
[47] = system: SK-MEL-5 melanoma
[48] = system: SK-OV-3 ovarian
[49] = system: SN12C renal
[50] = system: SNB-19 CNS
[51] = system: SNB-75 CNS
[52] = system: SW-620 colon
[53] = system: T-47D breast
[54] = system: TK-10 renal
[55] = system: U251 glioblastoma
[56] = system: UACC-257 melanoma
[57] = system: UACC-62 melanoma
[58] = system: UO-31 renal

CN[C@@H](C)C(=O)N[C@H](C(=O)N1CCC[C@H]1c1nc(C(=O)c2ccc(F)cc2)cs1)C1CCCCC1
GI50 [1]: 15.8 µM | TGI [1]: 29.3 µM | GI50 [2]: 15.5 µM | TGI [2]: 29.1 µM | GI50 [3]: 26.8 µM | TGI [3]: > 100 µM | GI50 [4]: 23.3 µM | TGI [4]: 56.7 µM | GI50 [5]: 12 µM | TGI [5]: 24.4 µM | GI50 [6]: 25.5 µM | TGI [6]: 48.4 µM | GI50 [7]: 7.4 µM | TGI [7]: 20.7 µM | GI50 [8]: 17.1 µM | TGI [8]: 32.5 µM | GI50 [9]: 17.9 µM | TGI [9]: 39.3 µM | GI50 [10]: 18.7 µM | TGI [10]: 41.3 µM | GI50 [11]: 14.2 µM | TGI [11]: 27.4 µM | GI50 [12]: 18 µM | TGI [12]: 32.3 µM | GI50 [13]: 20.3 µM | TGI [13]: 42 µM | GI50 [14]: 0.612 µM | TGI [14]: 3 µM | GI50 [15]: 3.25 µM | TGI [15]: 17.6 µM | GI50 [16]: 4.3 µM | TGI [16]: 19 µM | GI50 [17]: 5.06 µM | TGI [17]: 20.8 µM | GI50 [18]: 17.1 µM | TGI [18]: 31.1 µM | GI50 [19]: 21.2 µM | TGI [19]: 39.5 µM | GI50 [20]: 16.8 µM | TGI [20]: 30.5 µM | GI50 [21]: 17.3 µM | TGI [21]: 32.2 µM | GI50 [22]: 16.2 µM | TGI [22]: 29.7 µM | GI50 [23]: 18.2 µM | TGI [23]: 32.2 µM | GI50 [24]: 0.33 µM | TGI [24]: 2.99 µM | GI50 [25]: 11.7 µM | TGI [25]: 26.1 µM | GI50 [26]: 0.597 µM | TGI [26]: 3.29 µM | GI50 [27]: 14.1 µM | TGI [27]: 33.5 µM | GI50 [28]: 1.86 µM | TGI [28]: 13.8 µM | GI50 [29]: 13.1 µM | TGI [29]: 25.7 µM | GI50 [30]: 21.7 µM | TGI [30]: 60.5 µM | GI50 [31]: 13.3 µM | TGI [31]: 35.2 µM | GI50 [32]: 20.3 µM | TGI [32]: 51.4 µM | GI50 [33]: 20.2 µM | TGI [33]: 34.8 µM | GI50 [34]: 6.47 µM | TGI [34]: 20.8 µM | GI50 [35]: 17.1 µM | TGI [35]: 34.9 µM | GI50 [36]: 11.4 µM | TGI [36]: 25.2 µM | GI50 [37]: 0.044 µM | TGI [37]: 0.51 µM | GI50 [38]: 23.4 µM | TGI [38]: 51 µM | GI50 [39]: 10.2 µM | TGI [39]: 24.1 µM | GI50 [40]: 19.5 µM | TGI [40]: 38.7 µM | GI50 [41]: 6.69 µM | TGI [41]: 20 µM | GI50 [42]: 0.409 µM | TGI [42]: 11.1 µM | GI50 [43]: 18.5 µM | TGI [43]: 36.9 µM | GI50 [44]: 16.4 µM | TGI [44]: 30.9 µM | GI50 [45]: 17.5 µM | TGI [45]: 31.3 µM | GI50 [46]: 16.4 µM | TGI [46]: 30 µM | GI50 [47]: 10.2 µM | TGI [47]: 21.8 µM | GI50 [48]: 0.0692 µM | TGI [48]: 1.58 µM | GI50 [49]: 53.8 µM | TGI [49]: > 100 µM | GI50 [50]: 31.8 µM | TGI [50]: > 100 µM | GI50 [51]: 10.1 µM | TGI [51]: 25.6 µM | GI50 [52]: 23.9 µM | TGI [52]: 47.8 µM | GI50 [53]: 13.1 µM | TGI [53]: 27.6 µM | GI50 [54]: 21.2 µM | TGI [54]: 53.3 µM | GI50 [55]: 15.9 µM | TGI [55]: 29.7 µM | GI50 [56]: 15.4 µM | TGI [56]: 28.8 µM | GI50 [57]: 18.7 µM | TGI [57]: 34.1 µM | GI50 [58]: 30 µM | TGI [58]: > 100 µM
